Like-named read-outs stand apart in the source and are kept apart here.
Experiments:
HCT116 cells [1] = experiment: Apoptosis, Annexin V / 7-AAD flow cytometry, HCT116; format: cell-based; settings: 48 h, increase of early, late and total apoptosis
Procedure: (§1) Apoptosis was assessed by the detection of phosphatidylserine externalization based on Annexin V staining combined with fluorescent DNA intercalator 7-Aminoactinomycin D (7-AAD) what allowed for the discrimination between early and late apoptotic cells. The analysis was performed by flow cytometry using the Muse Annexin V & Dead Cell Kit (Luminex, USA) and the Muse Cell Analyzer (Merck, Germany), according to the manufacturer’s protocol. Cells were seeded (2 × 10^5 cells per well) in six-well plates and on the following day the analyzed compounds were added. Topotecan (Sigma-Aldrich, USA) was used as a positive control of apoptosis induction. After 48 h cells were collected by trypsinization, stained and after 20 min incubation at room temperature in the dark analyzed by flow cytometry. Three independent experiments were performed. Data were analyzed by Muse 1.5 Analysis Software (Merck, Germany).

DLD-1 cells [2] = experiment: Cell cycle distribution, PI staining, flow cytometry, DLD-1; format: cell-based; settings: 48 h, BAY 11-7082 5 µM, 5 in higher (doubled) concentration
Procedure: (§2) The analysis of the cell cycle distribution was performed by propidium iodide (PI) staining. The addition of RNase A improved the specificity of PI binding to DNA. The Muse Cell Cycle Kit (Luminex, USA) and flow cytometric detection were performed with the Muse Cell Analyzer (Merck, Germany), according to the manufacturer’s protocol. Briefly, cells were seeded (2 × 10^5 cells per well) in 6-well plates and on the following day the analyzed compounds were added. Topotecan (Sigma-Aldrich, USA) was used as a positive control of cell cycle arrest. After 48 h cells were collected by trypsinization, fixed in cold 70% ethanol and stored at –20 °C. Then, fixed cells were collected and stained with PI, subjected to 30 min incubation at room temperature in the dark and analyzed by flow cytometry. Three independent experiments were performed. Data were analyzed by Muse 1.5 Analysis Software (Merck, Germany).

HCT116 cells [3] = experiment: Cell cycle distribution, PI staining, flow cytometry, HCT116; format: cell-based; settings: 48 h, BAY 11-7082 5 µM, 4 and 5 in higher (doubled) concentrations
Procedure: as §2

DLD-1 cells [4] = experiment: Wound healing assay (cell migration); format: cell-based; settings: 24 h, 4 at standard concentration (1 μM), BAY 11-7082 5 µM
Procedure: Cell migration was assessed by the wound healing assay. DLD-1 cells were seeded into 24-well plates (5 × 10^5 cells per well) and were grown overnight to reach confluency. A scratch was performed using a 10 μl tip, wells were rinsed twice with PBS buffer to remove detached cells, and fresh medium with reduced FBS concentration (0.5%) containing the tested compounds was added. Subsequently, representative microscopic photographs of scratch areas were taken by JuLI FL microscope (NanoEntek, South Korea) direct after the addition of compounds and after 24 h. Area covered by cells (%) was assessed using JuLI FL software and the difference in the coverage of the growth area by DLD-1 cells between 0 and 24 h time points was calculated for each well. The experiment was repeated three times. The relative effect of the tested compounds on cell migration was calculated by comparing the difference in cell coverage area between compound-treated cells and DMSO-vehicle control (tested compound [area 24 h − area 0 h] / DMSO-vehicle control [area 24 h − area 0 h]).

COX-2 [5] = experiment: COX-2 expression (qRT-PCR mRNA, Western blot protein); format: cell-based; settings: BAY 11-7082 5 µM; both tested cell lines
Procedure: (§3) Cytosolic and nuclear extracts were prepared using a Nuclear/Cytosol Fractionation Kit (BioVision Research, USA). Cytosolic extracts (for NF-κBp65, NF-κBp50, COX-2, iNOS, STAT3, c-Myc, Bcl-xl, Nrf2, SOD, GSTP, EGFR, Akt, p-Akt, Keap1, IKKα/β and β-actin) or nuclear extracts (for NF-κBp65, NF-κBp50, STAT3, p-STAT3, Nrf2, p-Nrf2 and lamin) were separated on 7.5%, 10% or 12% SDS–PAGE slab gels. Then, the proteins were transferred to a nitrocellulose Immobilon-P membrane. After blocking for 2 h with 10% skimmed milk, proteins were incubated with primary antibodies against NF-κBp65, NF-κBp50, COX-2, iNOS, STAT3, p-STAT3, c-Myc, Bcl-xl, Nrf2, p-Nrf2, SOD, GSTP, EGFR, Akt, p-Akt, Keap1, IKKα/β, β-actin, and lamin. Alkaline phosphatase (AP)-labeled anti-rabbit IgG, anti-goat IgG, and anti-mouse IgG secondary antibodies (Bio-Rad Laboratories, USA), as well as horseradish peroxidase (HRP)-conjugated anti-mouse IgG (Boster Bio, USA) secondary antibodies were used in the staining reaction. Bands were visualized by the AP Conjugate Substrate Kit NBT/BCIP or the chemiluminescent HRP substrate of the Clarity ECL Kit (Bio–Rad Laboratories, USA). The amount of immunoreactive product in each lane was determined using a ChemiDoc Imaging System (Bio–Rad Laboratories, USA). Values were calculated as relative absorbance units (RQ) per mg of protein and expressed as a percentage of the control.
Total RNA from cells was isolated with the GeneMatrix Universal DNA/RNA/Protein Purification Kit (EurX, Poland). For the qRT-PCR analyses, the Maxima SYBR Green I/ROX qPCR Master Mix (2×) (Thermo Fisher Scientific, USA) and the thermal cycler LightCycler (Roche, Germany) were used. The protocol started with 5 min of enzyme activation at 95 °C, followed by 40–50 cycles at 95 °C for 15 s, 56 °C for 20 s, 72 °C for 40 s, and final elongation at 72 °C for 5 min. Melting curve analysis was used for amplicon verification. The expression levels of TATA-box-binding protein (TBP) and porphobilinogen deaminase (PBGD) were used to normalize the data. The Pfaffl comparative method was used to calculate fold change. Primers were designed using Beacon Designer software (the sequences of primers used to analyze genes are listed in Table 2 of the supplementary materials).

NF-κB p65 = experiment: Western blot, NF-κB p65 protein level; format: cell-based; settings: BAY 11-7082 5 µM; both tested cell lines
Procedure: as §3

NF-κB p50 = experiment: Western blot, NF-κB p50 protein level; format: cell-based; settings: BAY 11-7082 5 µM; both tested cell lines
Procedure: as §3

DLD-1 cells [6] = experiment: Apoptosis, Annexin V / 7-AAD flow cytometry, DLD-1; format: cell-based; settings: 48 h, mainly early and total apoptotic populations enriched
Procedure: as §1

Nrf2 signaling pathway = test system: Nrf2 signaling pathway; design: method as in PMID 23085367, PMID 34120541; settings: cited from earlier work
COX-2 [7] = test system: COX-2; design: method as in PMID 34120541; settings: PANC-1 pancreatic cancer cells; cited from earlier work
NF-κB = test system: NF-κB; design: method as in PMID 34120541; settings: PANC-1 pancreatic cancer cells; cited from earlier work

| SMILES | induction of apoptosis (HCT116 cells [1]) | cell cycle distribution (in words) (DLD-1 cells [2]) | cell cycle distribution (in words) (HCT116 cells [3]) | reduction of cell migration rate (wound healing) vs DMSO-treated cells (DLD-1 cells [4]) | level of COX-2, compared with the studied chalcones (COX-2 [5]) | level of NF-κBp65, compared with the studied chalcones (NF-κB p65) | level of NF-κBp50, compared with the studied chalcones (NF-κB p50) | induction of apoptosis (DLD-1 cells [6]) | activation of the Nrf2 signaling pathway (Nrf2 signaling pathway; HepG2 hepatoma cells) | activation of the Nrf2 signaling pathway (Nrf2 signaling pathway; PANC-1 pancreatic cancer cells) | expression of COX-2 (COX-2 [7]) | activation of NF-κB (NF-κB) | binding of both NF-κB subunits to DNA (NF-κB) |
| --- | --- | --- | --- | --- | --- | --- | --- | --- | --- | --- | --- | --- | --- |
| Cc1ccc(S(=O)(=O)/C=C/C#N)cc1 [BAY 11-7082, reference compound] | able to induce apoptosis | decrease of G1/G0 cell cycle phase | decreased G1/G0 phases; increased S and G2/M phases | at the same level as DMSO-treated cells | more potent inhibition | more potent inhibition | more potent inhibition | able to induce apoptosis |  |  |  |  |  |
| COc1cc(O)c(CC=C(C)C)c(O)c1C(=O)/C=C/c1ccc(O)cc1 [xanthohumol] |  |  |  |  |  |  |  |  | significantly increased activation | significantly increased activation | decreased | decreased the activation of NF-κB | decreased |
